24 compounds from PubChem BioAssay AID242 (DTP/NCI, 2004) can be followed below.

“And” between values parts separate entries of the source, which are not always exact repeats. Identical values can stand only once. Toxic doses and inconclusive results are not listed.

This assay concerns BDF1 mice, Lymphoma 8 ip, survival T/C. Nature of the assay: NCI In Vivo Anticancer Drug Screen. Data for tumor model Lymphoma 8 (intraperitoneal) in B6D2F1 (BDF1) mice. Conditions: higher = longer survival. As to the method: The antitumor activity of compounds was measured in mice bearing transplantable tumors. Survival or tumor size were measured and the results are expressed as the measurement made in the treated group (T) divided by the measurement made in the vehicle treated control group (C). The tumor model used in this assay is Lymphoma 8 (intraperitoneal) in B6D2F1 (BDF1) mice

The mark [1] stands for this setting: endpoint: survival time, mean or median, dose: 31.3 mg/kg/injection, schedule: Q01DX010 (ip), vehicle: saline.
The mark [2] stands for this setting: endpoint: survival time, mean or median, dose: 62.5 mg/kg/injection, schedule: Q01DX010 (ip), vehicle: saline.
Where [3] appears, read: endpoint: survival time, mean or median, dose: 125.0 mg/kg/injection, schedule: Q01DX010 (ip), vehicle: saline.
[4] abbreviates: endpoint: survival time, mean or median, dose: 250.0 mg/kg/injection, schedule: Q01DX010 (ip), vehicle: saline.
Where [5] appears, read: endpoint: survival time, mean or median, dose: 0.5 mg/kg/injection, schedule: Q01DX010 (ip), vehicle: saline.
[6] abbreviates: endpoint: survival time, mean or median, dose: 1.0 mg/kg/injection, schedule: Q01DX010 (ip), vehicle: saline.
The mark [7] stands for this setting: endpoint: survival time, mean or median, dose: 4.0 mg/kg/injection, schedule: Q01DX010 (ip), vehicle: saline.
The mark [8] stands for this setting: endpoint: survival time, mean or median, dose: 6.25 mg/kg/injection, schedule: Q01DX010 (ip), vehicle: saline.
The mark [9] stands for this setting: endpoint: survival time, mean or median, dose: 12.5 mg/kg/injection, schedule: Q01DX010 (ip), vehicle: saline.
Where [10] appears, read: endpoint: survival time, mean or median, dose: 25.0 mg/kg/injection, schedule: Q01DX010 (ip), vehicle: saline.
Setting [11] is: endpoint: survival time, mean or median, dose: 50.0 mg/kg/injection, schedule: Q01DX010 (ip), vehicle: saline.
Where [12] appears, read: endpoint: survival time, mean or median, dose: 5.0 mg/kg/injection, schedule: Q01DX010 (ip), vehicle: saline.
Where [13] appears, read: endpoint: survival time, mean or median, dose: 10.0 mg/kg/injection, schedule: Q01DX010 (ip), vehicle: saline.
[14] abbreviates: endpoint: survival time, mean or median, dose: 20.0 mg/kg/injection, schedule: Q01DX010 (ip), vehicle: saline.
The mark [15] stands for this setting: endpoint: survival time, mean or median, dose: 40.0 mg/kg/injection, schedule: Q01DX010 (ip), vehicle: saline.
Where [16] appears, read: endpoint: survival time, mean or median, dose: 500.0 mg/kg/injection, schedule: Q01DX010 (ip), vehicle: saline.
[17] abbreviates: endpoint: survival time, mean or median, dose: 1.25 mg/kg/injection, schedule: Q01DX010 (ip), vehicle: saline.

For the compound `CCCSc1ncnc2nc[nH]c12`, the T/C runs as follows: under setting [1], 100 % of control and 113 % of control; under setting [2], 95 % of control and 100 % of control; under setting [3], 95 % of control and 104 % of control; under setting [4], 86 % of control.

Consider `Nc1ccc(OC(=O)Oc2ccc(N)cc2)cc1`, for which the T/C (endpoint: survival time, mean or median, dose: 25.0 mg/kg/injection, schedule: Q01DX015 (ip), vehicle: saline) was 105 % of control; the T/C (endpoint: survival time, mean or median, dose: 50.0 mg/kg/injection, schedule: Q01DX015 (ip), vehicle: saline) is 91 % of control; the T/C (endpoint: survival time, mean or median, dose: 100.0 mg/kg/injection, schedule: Q01DX015 (ip), vehicle: saline) is 111 % of control; the T/C (endpoint: survival time, mean or median, dose: 200.0 mg/kg/injection, schedule: Q01DX015 (ip), vehicle: saline) was 106 % of control.

In the case of `CCCCOP(=S)(N1CC1)N1CC1`, the T/C was 100 % of control under setting [5]; 103 % of control under setting [6]; 106 % of control (endpoint: survival time, mean or median, dose: 2.0 mg/kg/injection, schedule: Q01DX010 (ip), vehicle: saline); 103 % of control under setting [7].

In the case of `O=C(O)CC(NC(=O)CP(=O)(O)O)C(=O)O` (stereo unspecified), the T/C was 101 % of control (endpoint: median survival time, dose: 62.2 mg/kg/injection, schedule: Q04DX003 (ip), vehicle: saline); 114 % of control (endpoint: median survival time, dose: 104.0 mg/kg/injection, schedule: Q04DX003 (ip), vehicle: saline); 103 % of control (endpoint: median survival time, dose: 173.0 mg/kg/injection, schedule: Q04DX003 (ip), vehicle: saline); 108 % of control (endpoint: median survival time, dose: 288.0 mg/kg/injection, schedule: Q04DX003 (ip), vehicle: saline); 111 % of control (endpoint: median survival time, dose: 480.0 mg/kg/injection, schedule: Q04DX003 (ip), vehicle: saline).

Turning to `NC(Cc1c[nH]c2ccc(N(CCCl)CCCl)cc12)C(=O)O` (stereo unspecified), the T/C is 92 % of control under setting [5], 103 % of control under setting [6] and 103 % of control under setting [7].

For the compound `O=C(O)CCCc1ccc(N(CCCl)CCCl)cc1`, the T/C by setting is: (endpoint: survival time, mean or median, dose: 3.13 mg/kg/injection, schedule: Q01DX010 (ip), vehicle: saline) 100 % of control and 104 % of control; under setting [8], 104 % of control and 116 % of control; under setting [9], 104 % of control.

Turning to `CS(=O)(=O)OCCCCOS(C)(=O)=O`, the T/C runs as follows: under setting [8], 100 % of control; under setting [9], 105 % of control; under setting [10], 100 % of control; under setting [11], 105 % of control.

As to `CCOC=Nc1c(N)ncnc1Cl`, the T/C by setting is: (endpoint: survival time, mean or median, dose: 62.5 mg/kg/injection, schedule: Q01DX015 (ip), vehicle: olive oil, sesame oil, peanut oil) 107 % of control; (endpoint: survival time, mean or median, dose: 125.0 mg/kg/injection, schedule: Q01DX015 (ip), vehicle: olive oil, sesame oil, peanut oil) 93 % of control; (endpoint: survival time, mean or median, dose: 250.0 mg/kg/injection, schedule: Q01DX015 (ip), vehicle: olive oil, sesame oil, peanut oil) 101 % of control; (endpoint: survival time, mean or median, dose: 500.0 mg/kg/injection, schedule: Q01DX015 (ip), vehicle: olive oil, sesame oil, peanut oil) 101 % of control.

With `C[C@@H]1C[C@@H]([C@H](O)CC2CC(=O)NC(=O)C2)C(=O)[C@@H](C)C1`, the T/C reads like this: under setting [12], 115 % of control; under setting [13], 105 % of control; under setting [14], 115 % of control; under setting [15], 120 % of control.

For the compound `COc1cc([C@@H]2c3cc4c(cc3[C@H](O)[C@H]3COC(=O)[C@@H]23)OCO4)cc(OC)c1OC`, the T/C (endpoint: survival time, mean or median, dose: 10.0 mg/kg/injection, schedule: Q01DX015 (ip), vehicle: carboxymethylcellulose (CMC)) was 98 % of control and the T/C (endpoint: survival time, mean or median, dose: 20.0 mg/kg/injection, schedule: Q01DX015 (ip), vehicle: carboxymethylcellulose (CMC)) was 119 % of control.

On to `C1CN1c1nc(N2CC2)nc(N2CC2)n1`, for which the T/C was 91 % of control and 100 % of control (endpoint: survival time, mean or median, dose: 0.13 mg/kg/injection, schedule: Q01DX010 (ip), vehicle: saline); 100 % of control and 104 % of control (endpoint: survival time, mean or median, dose: 0.25 mg/kg/injection, schedule: Q01DX010 (ip), vehicle: saline); 166 % of control under setting [5]; 87 % of control under setting [6].

As to `N#CCSc1ncnc2nc[nH]c12`, the T/C is 100 % of control (endpoint: survival time, mean or median, dose: 15.0 mg/kg/injection, schedule: Q01DX010 (ip), vehicle: saline); 95 % of control and 104 % of control (endpoint: survival time, mean or median, dose: 30.0 mg/kg/injection, schedule: Q01DX010 (ip), vehicle: saline); 100 % of control (endpoint: survival time, mean or median, dose: 60.0 mg/kg/injection, schedule: Q01DX010 (ip), vehicle: saline); 100 % of control (endpoint: survival time, mean or median, dose: 120.0 mg/kg/injection, schedule: Q01DX010 (ip), vehicle: saline).

For the compound `CN(C)[C@@H]1C(=O)C(C(N)=O)=C(O)[C@@]2(O)C(=O)C3=C(O)c4c(O)cccc4C[C@H]3C[C@@H]12`, the T/C reads like this: (endpoint: survival time, mean or median, dose: 15.0 mg/kg/injection, schedule: Q01DX015 (ip), vehicle: alkali diluted with saline) 93 % of control; (endpoint: survival time, mean or median, dose: 30.0 mg/kg/injection, schedule: Q01DX015 (ip), vehicle: alkali diluted with saline) 89 % of control.

On to `OCC1OC(n2cnc3c(Cl)ncnc32)C(O)C1O` (stereo unspecified), for which the T/C under setting [2] is 90 % of control and 105 % of control; the T/C under setting [3] was 95 % of control and 100 % of control and 105 % of control; the T/C under setting [4] is 90 % of control and 95 % of control and 105 % of control; the T/C under setting [16] is 97 % of control and 104 % of control and 115 % of control.

With `CCCCNc1ncnc2c1cnn2C`, the T/C is, setting by setting: under setting [1], 87 % of control and 95 % of control and 100 % of control; under setting [2], 86 % of control and 97 % of control and 100 % of control; under setting [3], 90 % of control.

`Oc1cc(CN(CCCl)CCCl)c(O)cc1CN(CCCl)CCCl`: the T/C (endpoint: survival time, mean or median, dose: 0.63 mg/kg/injection, schedule: Q01DX010 (ip), vehicle: saline) was 104 % of control and 107 % of control; the T/C under setting [17] is 104 % of control; the T/C under setting [12] is 103 % of control and 120 % of control.

Consider `CCN(CCNc1ccc(C)c2sc3cc(Cl)ccc3c(=O)c12)CC(C)O` (stereo unspecified), for which the T/C by setting is: (endpoint: survival time, mean or median, dose: 7.8 mg/kg/injection, schedule: Q01DX010 (ip), vehicle: saline) 100 % of control; (endpoint: survival time, mean or median, dose: 15.6 mg/kg/injection, schedule: Q01DX010 (ip), vehicle: saline) 100 % of control; under setting [1], 96 % of control.

For the compound `CSc1ncnc2nc[nH]c12`, the T/C is 103 % of control under setting [10]; 103 % of control under setting [11]; 100 % of control (endpoint: survival time, mean or median, dose: 100.0 mg/kg/injection, schedule: Q01DX010 (ip), vehicle: saline).

In the case of `O=c1cn[nH]c(=O)[nH]1`, the T/C was 95 % of control and 100 % of control and 109 % of control under setting [2]; 91 % of control and 95 % of control and 110 % of control under setting [3]; 90 % of control and 93 % of control and 115 % of control under setting [4]; 100 % of control (2×) and 106 % of control under setting [16].

As to `C=CCSc1nc(N)nc2nc[nH]c12`, the T/C (endpoint: survival time, mean or median, dose: 16.0 mg/kg/injection, schedule: Q01DX015 (ip), vehicle: other) was 101 % of control; the T/C (endpoint: survival time, mean or median, dose: 31.0 mg/kg/injection, schedule: Q01DX015 (ip), vehicle: other) was 100 % of control; the T/C (endpoint: survival time, mean or median, dose: 62.5 mg/kg/injection, schedule: Q01DX015 (ip), vehicle: other) is 90 % of control.

As for `N#[N+]c1cnc([O-])[nH]c1=O`, the T/C was 107 % of control under setting [17]; 103 % of control (endpoint: survival time, mean or median, dose: 2.5 mg/kg/injection, schedule: Q01DX010 (ip), vehicle: saline); 121 % of control under setting [12]; 121 % of control under setting [13].

Consider `CN(N=O)C(N)=O`, for which the T/C is, setting by setting: under setting [12], 114 % of control; under setting [14], 110 % of control.

As for `COc1cc(-c2ccc(Nc3ccccc3C(=O)O)c(OC)c2)ccc1N`, the T/C under setting [14] is 92 % of control and 100 % of control; the T/C under setting [15] is 100 % of control; the T/C (endpoint: survival time, mean or median, dose: 80.0 mg/kg/injection, schedule: Q01DX010 (ip), vehicle: saline) was 92 % of control and 120 % of control.

Turning to `O=c1cnn(C2OC(CO)C(O)C2O)c(=O)[nH]1` (stereo unspecified), the T/C was 115 % of control (endpoint: survival time, mean or median, dose: 200.0 mg/kg/injection, schedule: Q01DX008 (ip), vehicle: saline) and 96 % of control (endpoint: survival time, mean or median, dose: 800.0 mg/kg/injection, schedule: Q01DX008 (ip), vehicle: saline).
